Measurements as given in ChEMBL document CHEMBL1201862, “PubChem BioAssay data set” (2004).
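Values below derive from 48-hour exposures of cells grown in 96-well plates, with endpoints linearly interpolated between the two concentrations bracketing the appropriate inhibition level. The concentration for 50% growth inhibition is given as GI50.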 Calls of active or inactive are those of the source. Rule as the data show it: active = GI50 up to about 1.1 µM and inactive = higher.

Legend:
Assay in all cases: inhibition of tumour cell growth, NCI panel, 48 h
SW-620 = test system: SW-620
K562 = test system: K562
UACC-62 = test system: UACC-62
RXF 393 = test system: RXF 393
HOP-62 = test system: HOP-62
HL-60 = test system: HL-60
MDA-MB-435 = test system: MDA-MB-435
PC-3 = test system: PC-3
MDA-N = test system: MDA-N
OVCAR-5 = test system: OVCAR-5
HOP-92 = test system: HOP-92
MOLT-4 = test system: MOLT-4
HCT-116 = test system: HCT-116
SK-MEL-28 = test system: SK-MEL-28
SK-MEL-5 = test system: SK-MEL-5
HCT-15 = test system: HCT-15
OVCAR-8 = test system: OVCAR-8
A498 = test system: A498
IGROV-1 = test system: IGROV-1
A549 = test system: A549
MCF7 = test system: MCF7
SN12C = test system: SN12C
RPMI-8226 = test system: RPMI-8226
ACHN = test system: ACHN
KM12 = test system: KM12
UACC-257 = test system: UACC-257
EKVX = test system: EKVX
LOX IMVI = test system: LOX IMVI
786-0 = test system: 786-0
SK-OV-3 = test system: SK-OV-3
SF-268 = test system: SF-268
HT-29 = test system: HT-29
CCRF-CEM = test system: CCRF-CEM
DU-145 = test system: DU-145
SK-MEL-2 = test system: SK-MEL-2
TK-10 = test system: TK-10
SNB-19 = test system: SNB-19
Hs-578T = test system: Hs-578T
M14 = test system: M14
CAKI-1 = test system: CAKI-1
MDA-MB-231 = test system: MDA-MB-231
U-251 = test system: U-251
OVCAR-4 = test system: OVCAR-4
COLO 205 = test system: COLO 205
SNB-75 = test system: SNB-75
NCI-H23 = test system: NCI-H23
UO-31 = test system: UO-31
SF-295 = test system: SF-295
HCC 2998 = test system: HCC 2998
NCI/ADR-RES = test system: NCI/ADR-RES
T47D = test system: T47D
Malme-3M = test system: Malme-3M
NCI-H522 = test system: NCI-H522
NCI-H226 = test system: NCI-H226
OVCAR-3 = test system: OVCAR-3
NCI-H460 = test system: NCI-H460
SF-539 = test system: SF-539
SR = test system: SR

Measured: GI50

N#Cc1nc(-c2ccccc2O)oc1N
inactive: SW-620 65 µM | K562 29.9 µM | UACC-62 95.9 µM | RXF 393 55.7 µM | HOP-62 > 100 µM | HL-60 > 100 µM | MDA-MB-435 99.8 µM | PC-3 91.2 µM | MDA-N > 100 µM | OVCAR-5 > 100 µM | HOP-92 > 100 µM | MOLT-4 60.4 µM | HCT-116 78.2 µM | SK-MEL-28 > 100 µM | SK-MEL-5 61.4 µM | OVCAR-8 89.1 µM | A498 80.9 µM | IGROV-1 40 µM | A549 63.5 µM | MCF7 37.1 µM | SN12C 81.1 µM | RPMI-8226 20.4 µM | ACHN > 100 µM | KM12 42 µM | UACC-257 > 100 µM | EKVX 48.5 µM | LOX IMVI 53.7 µM | 786-0 70.1 µM | SK-OV-3 > 100 µM | SF-268 64.3 µM | HT-29 > 100 µM | CCRF-CEM 16.4 µM | DU-145 > 100 µM | SK-MEL-2 > 100 µM | TK-10 63.8 µM | SNB-19 > 100 µM | Hs-578T 40.9 µM | M14 > 100 µM | CAKI-1 36.9 µM | MDA-MB-231 > 100 µM | U-251 > 100 µM
43.5 µM: HCT-15

Clc1ccc(C2ON=C(c3ccccc3)N2C23CC4CC(CC(C4)C2)C3)c(Cl)c1 (stereo not drawn)
> 10 µM: HCT-15
inactive: SW-620 > 10 µM | K562 > 10 µM | UACC-62 > 10 µM | RXF 393 > 10 µM | OVCAR-4 > 10 µM | HOP-62 > 10 µM | COLO 205 > 10 µM | MDA-MB-435 > 10 µM | SNB-75 > 10 µM | PC-3 > 10 µM | NCI-H23 > 10 µM | MDA-N > 10 µM | OVCAR-5 > 10 µM | UO-31 > 10 µM | HOP-92 > 10 µM | MOLT-4 > 10 µM | HCT-116 > 10 µM | SK-MEL-28 > 10 µM | SF-295 > 10 µM | SK-MEL-5 > 10 µM | OVCAR-8 > 10 µM | HCC 2998 > 10 µM | A498 > 10 µM | NCI/ADR-RES > 10 µM | IGROV-1 > 10 µM | T47D > 10 µM | A549 > 10 µM | MCF7 > 10 µM | SN12C > 10 µM | RPMI-8226 > 10 µM | Malme-3M > 10 µM | ACHN > 10 µM | KM12 > 10 µM | NCI-H522 > 10 µM | UACC-257 > 10 µM | EKVX > 10 µM | LOX IMVI > 10 µM | 786-0 > 10 µM | SK-OV-3 > 10 µM | NCI-H226 > 10 µM | OVCAR-3 > 10 µM | SF-268 > 10 µM | HT-29 > 10 µM | CCRF-CEM > 10 µM | DU-145 > 10 µM | NCI-H460 > 10 µM | SK-MEL-2 > 10 µM | TK-10 > 10 µM | SNB-19 > 10 µM | Hs-578T > 10 µM | M14 > 10 µM | CAKI-1 > 10 µM | MDA-MB-231 > 10 µM | U-251 > 10 µM | SF-539 > 10 µM

CC1(C)OC[C@@H]([C@H](C=O)OCc2ccccc2)O1
inactive: SR > 100 µM | SW-620 > 100 µM | K562 > 100 µM | UACC-62 > 100 µM | OVCAR-4 > 100 µM | HOP-62 > 100 µM | COLO 205 > 100 µM | MDA-MB-435 > 100 µM | SNB-75 > 100 µM | PC-3 > 100 µM | NCI-H23 > 100 µM | MDA-N > 100 µM | OVCAR-5 > 100 µM | UO-31 > 100 µM | HOP-92 > 100 µM | MOLT-4 > 100 µM | HCT-116 > 100 µM | SK-MEL-28 > 100 µM | SF-295 > 100 µM | SK-MEL-5 > 100 µM | OVCAR-8 > 100 µM | A498 > 100 µM | NCI/ADR-RES > 100 µM | IGROV-1 > 100 µM | A549 > 100 µM | MCF7 > 100 µM | SN12C > 100 µM | RPMI-8226 > 100 µM | Malme-3M > 100 µM | ACHN > 100 µM | KM12 > 100 µM | UACC-257 > 100 µM | EKVX > 100 µM | LOX IMVI > 100 µM | 786-0 > 100 µM | SK-OV-3 > 100 µM | NCI-H226 > 100 µM | OVCAR-3 > 100 µM | SF-268 > 100 µM | HT-29 > 100 µM | CCRF-CEM > 100 µM | DU-145 > 100 µM | SK-MEL-2 > 100 µM | TK-10 > 100 µM | SNB-19 > 100 µM | Hs-578T > 100 µM | M14 > 100 µM | MDA-MB-231 > 100 µM | U-251 > 100 µM
> 100 µM: HCT-15
